Assays:
YH-13 (Glioblastoma) = assay: Bliss excess, mean over the matrix (fraction); higher = more synergy
Summary of the method: (§1)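 Cell lines in DMEM/F12 or RPMI with 10% FBS were plated in 1536-well plates, held 24 hours at 37°C, 5% CO2, then given two-drug dose matrices for 72 hours (DMSO typically 0.2%). Viability was read by CellTiter-Glo 2.0 luminescence and scaled as inhibition from 0 (vehicle wells) to 1 (blank wells). Combination Emax is the second-highest inhibition in the matrix; Bliss excess is observed combination effect minus expected EA + EB − EA·EB, EA and EB being single-agent effects.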

[1] = test system: SU8686 (Pancreatic Carcinoma); assay: as above
Summary of the method: as §1

SMILES	Bliss excess (YH-13 (Glioblastoma))	Bliss excess [1]
C=CCn1c(=O)c2cnc(Nc3ccc(N4CCN(C)CC4)cc3)nc2n1-c1cccc(C(C)(C)O)n1 [AZD1775] + CCc1c2c(nc3ccc(O)cc13)-c1cc3c(c(=O)n1C2)COC(=O)[C@]3(O)CC [SN-38] (first compound max 1 µM, partner max 0.3 µM)	-0.0262	–
C=CCn1c(=O)c2cnc(Nc3ccc(N4CCN(C)CC4)cc3)nc2n1-c1cccc(C(C)(C)O)n1 [AZD1775] + Nc1ccn([C@@H]2O[C@H](CO)[C@@H](O)C2(F)F)c(=O)n1 [Gemcitabine] (first compound max 1 µM, partner max 0.3 µM)	0.0208	–
CN(CCO)CC[C@H](CSc1ccccc1)Nc1ccc(S(=O)(=O)NC(=O)c2ccc(N3CCC([C@@H](O)c4ccccc4-c4ccc(Cl)cc4)CC3)cc2)cc1S(=O)(=O)C(F)(F)F [AZD4320] + CS(=O)(=O)CCNCc1ccc(-c2ccc3ncnc(Nc4ccc(OCc5cccc(F)c5)c(Cl)c4)c3c2)o1 [Lapatinib] (first compound max 1 µM, 7x7, partner max 10 µM)	0.0183	–
COc1nnc2ccc(N3CCC(c4ccc(OCCN5CCN(C)C(=O)[C@H]5C)cc4)CC3)nn12 [AZD5153] + C=CCn1c(=O)c2cnc(Nc3ccc(N4CCN(C)CC4)cc3)nc2n1-c1cccc(C(C)(C)O)n1 [AZD1775] (first compound max 1 µM, partner max 1 µM)	-0.0451	-0.0147
COc1nnc2ccc(N3CCC(c4ccc(OCCN5CCN(C)C(=O)[C@H]5C)cc4)CC3)nn12 [AZD5153] + CC1(C)CCC(CN2CCN(c3ccc(C(=O)NS(=O)(=O)c4ccc(NCC5CCOCC5)c([N+](=O)[O-])c4)c(Oc4cnc5[nH]ccc5c4)c3)CC2)=C(c2ccc(Cl)cc2)C1 [Venetoclax] (first compound max 1 µM, 7x7, partner max 1 µM)	-0.0441	-0.0501
COc1nnc2ccc(N3CCC(c4ccc(OCCN5CCN(C)C(=O)[C@H]5C)cc4)CC3)nn12 [AZD5153] + CCN(CCO)CCCOc1ccc2c(Nc3cc(CC(=O)Nc4cccc(F)c4)[nH]n3)ncnc2c1 [AZD2811] (first compound max 1 µM, 7x7, partner max 1 µM)	-0.0409	-0.0309
COc1nnc2ccc(N3CCC(c4ccc(OCCN5CCN(C)C(=O)[C@H]5C)cc4)CC3)nn12 [AZD5153] + C[C@@H]1COCCN1C2=NC(=NC(=C2)C3(CC3)[S@](=N)(=O)C)C4=C5C=CNC5=NC=C4 [AZD6738] (first compound max 1 µM, 7x7, partner max 10 µM)	-0.0157	-0.0329
COc1nnc2ccc(N3CCC(c4ccc(OCCN5CCN(C)C(=O)[C@H]5C)cc4)CC3)nn12 [AZD5153] + Cc1c2c(nn1C)CSCc1cc(n(C)n1)CSc1cc(c3ccccc3c1)OCCCc1c(C(=O)O)n(C)c3c-2c(Cl)ccc13 [AZD5991] (first compound max 1 µM, 7x7, partner max 1 µM)	-0.0069	-0.0221
COc1nnc2ccc(N3CCC(c4ccc(OCCN5CCN(C)C(=O)[C@H]5C)cc4)CC3)nn12 [AZD5153] + Cn1cnc2c(F)c(Nc3ccc(Br)cc3Cl)c(C(=O)NOCCO)cc21 [Selumetinib] (first compound max 1 µM, 7x7, partner max 10 µM)	-0.0356	-0.0166
Cc1c2c(nn1C)CSCc1cc(n(C)n1)CSc1cc(c3ccccc3c1)OCCCc1c(C(=O)O)n(C)c3c-2c(Cl)ccc13 [AZD5991] + CC(=O)O[C@H]1C(=O)[C@@]2(C)[C@H]([C@H](OC(=O)c3ccccc3)[C@]3(O)C[C@H](OC(=O)[C@H](O)[C@@H](NC(=O)c4ccccc4)c4ccccc4)C(C)=C1C3(C)C)[C@]1(OC(C)=O)CO[C@@H]1C[C@@H]2O [Paclitaxel] (first compound max 1 µM, 7x7, partner max 3 µM)	0.0246	–
Cc1c2c(nn1C)CSCc1cc(n(C)n1)CSc1cc(c3ccccc3c1)OCCCc1c(C(=O)O)n(C)c3c-2c(Cl)ccc13 [AZD5991] + Nc1ccn([C@@H]2O[C@H](CO)[C@@H](O)C2(F)F)c(=O)n1 [Gemcitabine] (first compound max 1 µM, 7x7, partner max 0.3 µM)	0.0143	–
C[C@@H]1COCCN1c1cc(C2([S@](C)(=N)=O)CC2)nc(-c2ccnc3[nH]ccc23)n1 [AZD6738] + C1CC(C1)(C(=O)[O-])C(=O)[O-].N.N.[Pt+2] [Carboplatin] (first compound max 10 µM, 7x7, partner max 10 µM)	-0.0453	–
C[C@@H]1COCCN1c1cc(C2([S@](C)(=N)=O)CC2)nc(-c2ccnc3[nH]ccc23)n1 [AZD6738] + Nc1ccn([C@@H]2O[C@H](CO)[C@@H](O)C2(F)F)c(=O)n1 [Gemcitabine] (first compound max 10 µM, 7x7, partner max 0.3 µM)	0.0228	–
C[C@@H](Nc1cc(F)cc(F)c1)c1cc(C(=O)N(C)C)cc2c(=O)cc(N3CCOCC3)oc12 [AZD8186] + C1CN(CCC1(C(=O)N[C@@H](CCO)C2=CC=C(C=C2)Cl)N)C3=NC=NC4=C3C=CN4 [AZD5363] (first compound max 10 µM, 7x7, partner max 10 µM)	0.0106	–
C[C@@H](Nc1cc(F)cc(F)c1)c1cc(C(=O)N(C)C)cc2c(=O)cc(N3CCOCC3)oc12 [AZD8186] + CC(=O)c1c(C)c2cnc(Nc3ccc(N4CCNCC4)cn3)nc2n(C2CCCC2)c1=O [Palbociclib] (first compound max 10 µM, 7x7, partner max 10 µM)	0.0183	–
NC1(C(=O)N[C@@H](CCO)c2ccc(Cl)cc2)CCN(c2ncnc3[nH]ccc23)CC1 [Capivasertib] + CC(=O)c1c(C)c2cnc(Nc3ccc(N4CCNCC4)cn3)nc2n(C2CCCC2)c1=O [Palbociclib] (first compound max 10 µM, 7x7, partner max 10 µM)	0.0004	-0.0465
NC1(C(=O)N[C@@H](CCO)c2ccc(Cl)cc2)CCN(c2ncnc3[nH]ccc23)CC1 [Capivasertib] + CC(C)n1c(=O)n(C)c2cnc3cc(F)c(-c4ccc(OCCCN5CCCCC5)nc4)cc3c21 [AZD1390] (first compound max 10 µM, 7x7, partner max 0.3 µM)	-0.0372	-0.0484
NC1(C(=O)N[C@@H](CCO)c2ccc(Cl)cc2)CCN(c2ncnc3[nH]ccc23)CC1 [Capivasertib] + CCN(CCO)CCCOc1ccc2c(Nc3cc(CC(=O)Nc4cccc(F)c4)[nH]n3)ncnc2c1 [AZD2811] (first compound max 10 µM, 7x7, partner max 1 µM)	-0.0317	-0.0212
C[C@@H](Oc1cc(-c2cnn(C3CCNCC3)c2)cnc1N)c1c(Cl)ccc(F)c1Cl [Crizotinib] + CC1=C(C(=CC=C1)Cl)NC(=O)C2=CN=C(S2)NC3=CC(=NC(=N3)C)N4CCN(CC4)CCO [Dasatinib] (first compound max 10 µM, 7x7, partner max 2 µM)	0.107	–
C[C@@H](Oc1cc(-c2cnn(C3CCNCC3)c2)cnc1N)c1c(Cl)ccc(F)c1Cl [Crizotinib] + Cn1cnc2c(F)c(Nc3ccc(Br)cc3Cl)c(C(=O)NOCCO)cc21 [Selumetinib] (first compound max 10 µM, 7x7, partner max 10 µM)	-0.0111	–
CS(=O)(=O)CCNCc1ccc(-c2ccc3ncnc(Nc4ccc(OCc5cccc(F)c5)c(Cl)c4)c3c2)o1 [Lapatinib] + Cn1cnc2c(F)c(Nc3ccc(Br)cc3Cl)c(C(=O)NOCCO)cc21 [Selumetinib] (first compound max 10 µM, 7x7, partner max 10 µM)	-0.0095	–
CS(=O)(=O)CCNCc1ccc(-c2ccc3ncnc(Nc4ccc(OCc5cccc(F)c5)c(Cl)c4)c3c2)o1 [Lapatinib] + NC1(c2ccc(-c3nc4ccn5c(=O)[nH]nc5c4cc3-c3ccccc3)cc2)CCC1 [MK-2206] (first compound max 10 µM, 7x7, partner max 10 µM)	-0.0154	–
O=C(c1cc(Cc2n[nH]c(=O)c3ccccc23)ccc1F)N1CCN(C(=O)C2CC2)CC1 [Olaparib] + CC1(C)CCC(CN2CCN(c3ccc(C(=O)NS(=O)(=O)c4ccc(NCC5CCOCC5)c([N+](=O)[O-])c4)c(Oc4cnc5[nH]ccc5c4)c3)CC2)=C(c2ccc(Cl)cc2)C1 [Venetoclax] (first compound max 10 µM, 7x7, partner max 1 µM)	-0.0207	–
O=C(c1cc(Cc2n[nH]c(=O)c3ccccc23)ccc1F)N1CCN(C(=O)C2CC2)CC1 [Olaparib] + CN(CC[C@H](CSC1=CC=CC=C1)NC2=C(C=C(C=C2)S(=O)(=O)NC(=O)C3=CC=C(C=C3)N4CCC(CC4)[C@H](C5=CC=CC=C5C6=CC=C(C=C6)Cl)O)S(=O)(=O)C(F)(F)F)CCO [AZD4320] (first compound max 10 µM, 7x7, partner max 1 µM)	0.0012	–
O=C(c1cc(Cc2n[nH]c(=O)c3ccccc23)ccc1F)N1CCN(C(=O)C2CC2)CC1 [Olaparib] + COc1nnc2ccc(N3CCC(c4ccc(OCCN5CCN(C)C(=O)[C@H]5C)cc4)CC3)nn12 [AZD5153] (first compound max 10 µM, 7x7, partner max 1 µM)	-0.0114	–
O=C(c1cc(Cc2n[nH]c(=O)c3ccccc23)ccc1F)N1CCN(C(=O)C2CC2)CC1 [Olaparib] + Cc1c2c(nn1C)CSCc1cc(n(C)n1)CSc1cc(c3ccccc3c1)OCCCc1c(C(=O)O)n(C)c3c-2c(Cl)ccc13 [AZD5991] (first compound max 10 µM, 7x7, partner max 1 µM)	-0.0298	–
Cc1nc(-c2cn3c(n2)-c2ccc(-c4cnn(C(C)(C)C(N)=O)c4)cc2OCC3)n(C(C)C)n1 [Taselisib] + O=C(Nc1ccc2[nH]nc(-c3ccncc3)c2c1)[C@@H]1CCN(CC(=O)N2CCN(c3ccc(-c4ncccn4)cc3)CC2)C1 [SCH772984] (first compound max 10 µM, 7x7, partner max 5 µM)	-0.0586	–
CC1(C)CCC(CN2CCN(c3ccc(C(=O)NS(=O)(=O)c4ccc(NCC5CCOCC5)c([N+](=O)[O-])c4)c(Oc4cnc5[nH]ccc5c4)c3)CC2)=C(c2ccc(Cl)cc2)C1 [Venetoclax] + CS(=O)(=O)CCNCc1ccc(-c2ccc3ncnc(Nc4ccc(OCc5cccc(F)c5)c(Cl)c4)c3c2)o1 [Lapatinib] (first compound max 1 µM, 7x7, partner max 10 µM)	-0.04	–
